Experimental data as given in US9994913B2, “Methods and compositions for detecting and treating drug resistant AKT mutant” (Genentech, Inc., priority 2013, dated 2018).
Entries after “also recorded” stand apart in the source; their conditions may differ.

Legend:
Type in all cases: cell-based
Akt = assay: Western blot of AKT inhibitor dosed LNCaP cells, Akt phosphorylation and inhibitor binding (FIGS. 3-4); details: MK2206 resistant LNCaP cells vs parental lines
Text: (§1) FIGS. 3-4 show Western blot analysis of AKT inhibitor dosed to cancer cells (LNCaP cells).

pS6 = assay: Western blot of AKT inhibitor dosed LNCaP cells, downstream pS6 (FIGS. 3-4)
Text: as §1

LNCaP cells = assay: Dose response of AKT inhibitors in parental and AKT-inhibitor-resistant LNCaP cells (FIGS. 1-2, 6)
Experimental: Resistant clones to both inhibitors were derived from populations of cancer cells treated with increasing doses of AKT inhibitor over time. […] For MK2206, cells that are ˜40× less sensitive were cloned.
(§2) The in vitro potency of the combinations of the compound of Example 2 with certain specific chemotherapeutic agents was measured using the CellTiterGlo® Luminescent Cell Viability Assay, commercially available from Promega Corp., Madison, Wis. This homogeneous assay method is based on the recombinant expression of Coleoptera luciferase (U.S. Pat. Nos. 5,583,024; 5,674,713; 5,700,670) and determines the number of viable cells in culture based on quantitation of the ATP present, an indicator of metabolically active cells (Crouch et al (1993) J. Immunol. Meth. 160:81-88; U.S. Pat. No. 6,602,677). The CellTiter-Glo® Assay was conducted in 96 or 384 well format, making it amenable to automated high-throughput screening (HTS) (Cree et al (1995) AntiCancer Drugs 6:398-404). The homogeneous assay procedure involves adding the single reagent (CellTiter-Glo® Reagent) directly to cells cultured in serum-supplemented medium. Cell washing, removal of medium and multiple pipetting steps are not required. The system detects as few as 15 cells/well in a 384-well format in 10 minutes after adding reagent and mixing.
The homogeneous “add-mix-measure” format results in cell lysis and generation of a luminescent signal proportional to the amount of ATP present. The amount of ATP is directly proportional to the number of cells present in culture. The CellTiterGlo® Assay generates a “glow-type” luminescent signal, produced by the luciferase reaction, which has a half-life generally greater than five hours, depending on cell type and medium used. Viable cells are reflected in relative luminescence units (RLU). […] Data can be recorded by luminometer or CCD camera imaging device. The luminescence output is presented as relative light units (RLU), measured over time.

IGROV1 cells = assay: Treatment of parental and AKT-inhibitor-resistant IGROV1 ovarian cancer cells (FIGS. 7-9); details: for potency in parental and resistant lines: all IGROV1 lines, FIG. 9
Experimental: as §2
The homogeneous “add-mix-measure” format results in cell lysis and generation of a luminescent signal proportional to the amount of ATP present. The amount of ATP is directly proportional to the number of cells present in culture. The CellTiterGlo® Assay generates a “glow-type” luminescent signal, produced by the luciferase reaction, which has a half-life generally greater than five hours, depending on cell type and medium used. Viable cells are reflected in relative luminescence units (RLU). The substrate, Beetle Luciferin, is oxidatively decarboxylated by recombinant firefly luciferase with concomitant conversion of ATP to AMP and generation of photons. The extended half-life eliminates the need to use reagent injectors and provides flexibility for continuous or batch mode processing of multiple plates. This cell proliferation assay can be used with various multiwell formats, e.g. 96 or 384 well format. Data can be recorded by luminometer or CCD camera imaging device. The luminescence output is presented as relative light units (RLU), measured over time.

NC1(c2ccc(-c3nc4ccn5c(=O)[nH]nc5c4cc3-c3ccccc3)cc2)CCC1 [MK2206, 8-[4-(1-aminocyclobutyl)phenyl]-9-phenyl-1,2,4-triazolo[3,4-f][1,6]naphthyridin-3(2H)-one]
inhibition of Akt phosphorylation (Akt): failed to inhibit Akt phosphorylation | inhibition of pS6 (pS6; MK2206 resistant LNCaP cells): lost the inhibition of pS6 | resistance of GDC-0068 selected cells to the inhibitor (LNCaP cells; GDC-0068 selected LNCaP cells, FIG. 6): similarly resistant | fold less sensitive to MK2206, resistant clones vs parental (LNCaP cells; LNCaP clones derived under increasing doses of MK2206): ~40 × | resistance to allosteric inhibition (IGROV1 cells; IGROV1 cells resistant to GDC0068 and cells resistant to MK2206): equally resistant

CS(=O)(=O)N1CCN(Cc2cc3nc(-c4cccc5[nH]ncc45)nc(N4CCOCC4)c3s2)CC1 [GDC-0941]
potency in parental and resistant lines (IGROV1 cells): remain potent

Cc1c(CN2CCN(C(=O)[C@H](C)O)CC2)sc2c(N3CCOCC3)nc(-c3cnc(N)nc3)nc12 [GDC-0980]
potency in parental and resistant lines (IGROV1 cells): remain potent

CC(C)NC[C@@H](C(=O)N1CCN(c2ncnc3c2[C@H](C)C[C@H]3O)CC1)c1ccc(Cl)cc1 [GDC-0068, (S)-2-(4-chlorophenyl)-1-(4-((5R,7R)-7-hydroxy-5-methyl-6,7-dihydro-5H-cyclopenta [d]pyrimidin-4-yl)piperazin-1-yl)-3-(isopropylamino)propan-1-one]
inhibition of downstream pS6 (pS6; GDC-0068 resistant LNCaP cells): less potent | sensitivity of MK2206-resistant cells to the inhibitor (LNCaP cells; MK2206-resistant LNCaP cells, FIG. 6): still sensitive; also recorded: remain sensitvie | resistance of GDC0068-resistant cells to the inhibitor (IGROV1 cells; IGROV1 cells resistant to GDC0068, GDC-0068 compared with MK2206): more resistant to GDC-0068 than MK2206
